The record followed here is US20070197523A1, “CALCIUM CHANNEL ANTAGONISTS” (ICAGEN, INC., priority 2005, published 2007).

The structures appear in SMILES notation.

The subject of the experiment is T-type calcium channels. The experiment in a line: T-type calcium channel inhibitory activity (fluorometric FLIPR Fluo-4 and whole cell patch clamp). It counts as cell-based, mammalian. As to conditions: inhibition of T-type calcium channels; cells natively expressing or HEK-293 cells expressing recombinant channels. On the procedure:
T-type calcium channel inhibitory activity of some compounds of the invention was evaluated using both fluorometric as well as electrophysiological measurement methodologies, which are known to those skilled in the art. Fluorescence measurement of changes in intracellular calcium due to entry of calcium through T-type calcium channels was assessed using calcium sensitive fluorescent dyes Fluo-4 and Fluo-3. In brief, cells natively expressing T-type channels or HEK-293 cells transiently or stably expressing recombinant mammalian T-type calcium channels grown in 96-well tissue culture plates in DMEM/High glucose, Hyclone, Fetal Bovine Serum (10%), and 2 mM sodium pyruvate 2 mM (and for cells lines recombinantly expressing T-type calcium channels, G418 @ 400 mg/liter) were loaded with 4 μM Fluo-4 made up in Earls Balanced Salt Solution (EBSS). After incubation for 30 minutes at room temperature, cells were washed with low calcium (0.5 mM) EBSS to remove extracellular Fluo-4. Baseline fluorescence was measured in a FLIPR (FLuorescence Image Plate Reader) (Molecular Devices Inc) after applying test compounds at desired concentration for 5-10 minutes. The effect of test compound on calcium entry was assessed by monitoring changes in Fluo-4 fluorescence following an elevation of extracellular calcium concentration from 0.5 mM to 5 mM. […] Native cells natively expressing T-type channels or HEK-293 cells transiently or stably expressing recombinant mammalian T-type calcium channels were grown in DMEM/High glucose, Hyclone, Fetal Bovine Serum (10%), 2 mM sodium pyruvate 2 mM (and for cells lines recombinantly expressing T-type calcium channels, G418 @ 400 mg/liter) on glass coverslips in 35 mm tissue culture dishes. Experiments were performed by placing T-type calcium channels expressing cells in a recording chamber perfused with EBSS (which contains (in mM): 132 NaCl, 5.4 KCl, 1.8 CaCl2, 0.8 MgCl2, 10 Hepes, 5 glucose, pH 7.4 with NaOH) on the stage of an inverted microscope. Electrical currents were measured using the whole cell configuration of the patch clamp technique (Axopatch 200B, Axon Instruments (Molecular Devices) (see Hamill et al (1981) Pflugers Arch. 1981 391:85-100) using 2-2.5 MOhm resistance glass pipettes filled with 135 CsF, 5 CsCl, 5 NaCl, 5 EGTA, 10 HEPES, pH 7.3 with CsOH, Osmolarity ˜288 mOsm. Test compound effects were typically assessed under conditions in which approximately half of the available channels were inactivated either by an 8 second conditioning depolarization from a holding potential of −100 mV to a potential ranging from −70 mV to −60 mV or by continually holding the membrane potential at −70 mV. Test compounds were assessed for their ability to reduce the amplitude of the inward T-type calcium current elicited by a 100 ms step depolarization −20 or −30 mV.
(Patch clamp records ionic current or voltage across a cell membrane.)
Usually IC50 stands for the concentration needed to halve the response being measured. `CCOc1cccc(S(=O)(=O)c2cnc(NC(=O)Cc3ccc(OC)c(OC)c3)s2)c1` [Example 1, 2-(3,4-Dimethoxy-phenyl)-N-[5-(3-ethoxy-benzenesulfonyl)-thiazol-2-yl]-acetamide]: the IC50 is 0.001 to 1 µM.

Take `CCOc1cccc(S(=O)(=O)c2cnc(Nc3cc(NCCN4CCCC4)ncn3)s2)c1` [Example 2, N-(2-Pyrrolidin-1-ethyl)-N′-[5-(3-ethoxy-benzenesulfonyl)-thiazol-2-yl]-pyrimidine-4,6-diamine]: the IC50 was in the range of 0.001 to 1 µM.

With `CCOc1cccc(S(=O)(=O)c2cnc(Nc3cc(NCCN(C)C)ncn3)s2)c1` [Example 3, N-(2-Dimethylamino-ethyl)-N′-[5-(3-ethoxy-benzenesulfonyl)-thiazol-2-yl]-pyrimidine-4,6-diamine], the IC50 was in the range of 0.001 to 1 µM.

Regarding `CCOc1cccc(S(=O)(=O)c2cnc(Nc3cc(NCCOC)ncn3)s2)c1` [Example 4, N-[5-(3-Ethoxy-benzenesulfonyl)-thiazol-2-yl]-N′-(2-methoxy-ethyl)-pyrimidine-4,6-diamine], the IC50 lay within 1 to 10 µM.

For the molecule `CCOc1cccc(S(=O)(=O)c2cnc(Nc3cc(N(C)CCOC)ncn3)s2)c1` [Example 5, N-[5-(3-Ethoxy-benzenesulfonyl)-thiazol-2-yl]-N′-(2-methoxy-ethyl)-N′-methyl-pyrimidine-4,6-diamine], the IC50 lay in the range of 1 to 10 µM.

For `CCOc1cccc(S(=O)(=O)c2cnc(Nc3cc(NCC(C)(C)N)nc(C)n3)s2)c1` [Example 6, N-(2-Amino-2-methyl-propyl)-N′-[5-(3-ethoxy-benzenesulfonyl)-thiazol-2-yl]-2-methyl-pyrimidine-4,6-diamine], the IC50 lay within 0.001 to 1 µM.

As for `CCOc1cccc(S(=O)(=O)c2cnc(Nc3cc(NCCOC)nc(C)n3)s2)c1` [Example 7, N-[5-(3-ethoxy-benzenesulfonyl)-thiazol-2-yl]-N′-(2-methoxy-ethyl)-2-methyl-pyrimidine-4,6-diamine], the IC50 was 1 to 10 µM.

`CCOc1cccc(S(=O)(=O)c2cnc(Nc3cc(NCCN(C)C)nc(C)n3)s2)c1` [Example 8, N-(2-Dimethylamino-ethyl)-N′-[5-(3-ethoxy-benzenesulfonyl)-thiazol-2-yl]-2-methyl-pyrimidine-4,6-diamine]: the IC50 lay within 0.001 to 1 µM.

In the case of `CCOc1cccc(S(=O)(=O)c2cnc(Nc3cc(NCCN4CCCC4)nc(C)n3)s2)c1` [Example 9, N-[5-(3-ethoxy-benzenesulfonyl)-thiazol-2-yl]-2-methyl-N′-(2-pyrrolidin-1-yl-ethyl)-pyrimidine-4,6-diamine], the IC50 lay in the range of 0.001 to 1 µM.

In the case of `CCOc1cccc(S(=O)(=O)c2cnc(Nc3cc(NCC[C@H]4CCNC4)nc(C)n3)s2)c1` [Example 10, N-[5-(3-ethoxy-benzenesulfonyl)-thiazol-2-yl]-2-methyl-N′-(R)-(pyrrolidin-3-yl-ethyl)-pyrimidine-4,6-diamine], the IC50 fell in the range of 0.001 to 1 µM.

As for `CCOc1cccc(S(=O)(=O)c2cnc(Nc3cc(NCC4(N)CCCCC4)nc(C)n3)s2)c1` [Example 11, N-(1-Amino-cyclohexylmethyl)-N′-[5-(3-ethoxy-benzenesulfonyl)-thiazol-2-yl]-2-methyl-pyrimidine-4,6-diamine], the IC50 is 0.001 to 1 µM.

Turning to `CCOc1cccc(S(=O)(=O)c2cnc(Nc3nc(C)nc(NCCN4CCCC4)c3F)s2)c1` [Example 12, N-[5-(3-Ethoxy-benzenesulfonyl)-thiazol-2-yl]-5-fluoro-2-methyl-N′-(2-pyrrolidin-1-yl-ethyl)-pyrimidine-4,6-diamine], the IC50 fell in the range of 0.001 to 1 µM.

As for `CCOc1cccc(S(=O)(=O)c2cnc(Nc3nc(C)nc(N(C)CCOC)c3F)s2)c1` [Example 13, N-[5-(3-ethoxy-benzenesulfonyl)-thiazol-2-yl]-5-fluoro-N′-(2-methoxy-ethyl)-2, N′-dimethyl-pyrimidine-4,6-diamine], the IC50 fell in the range of 0.001 to 1 µM.

With `CCOc1cccc(S(=O)(=O)c2cnc(Nc3nc(C)nc(NCC(C)(C)N)c3F)s2)c1` [Example 14, N-(2-Amino-2-methyl-propyl)-N′-[5-(3-ethoxy-benzenesulfonyl)-thiazol-2-yl]-5-fluoro-2-methyl-pyrimidine-4,6-diamine], the IC50 was in the range of 0.001 to 1 µM.

`CCOc1cccc(S(=O)(=O)c2cnc(N(CCCN3CCOCC3)c3nc(C)nc(NCCOC)c3F)s2)c1` [Example 15, N-[5-(3-ethoxy-benzenesulfonyl)-thiazol-2-yl]-5-fluoro-N′-(2-methoxy-ethyl)-2-methyl-N-(3′-morpholin-4-yl-propyl)-pyrimidine-4,6-diamine]: the IC50 lay in the range of 0.001 to 1 µM.

Consider `CCOc1cccc(S(=O)(=O)c2cnc(Nc3cc(NCCN4CCCC4)nc(C(F)(F)F)n3)s2)c1` [Example 16, N-[5-(3-Ethoxy-benzenesulfonyl)-thiazol-2-yl]-N′-(2-pyrrolidin-1-yl-ethyl)-2-trifluoromethyl-pyrimidine-4,6-diamine], for which the IC50 was in the range of 0.001 to 1 µM.

Consider `CCOc1cccc(S(=O)(=O)c2cnc(Nc3cc(NCCOC)nc(C(F)(F)F)n3)s2)c1` [Example 17, N-[5-(3-ethoxy-benzenesulfonyl)-thiazol-2-yl]-N′-(2-methoxy-ethyl)-2-trifluoromethyl-pyrimidine-4,6-diamine], for which the IC50 fell in the range of 0.001 to 1 µM.

For `CCOc1cccc(S(=O)(=O)c2cnc(Nc3cc(NCC(C)(C)N)nc(C(F)(F)F)n3)s2)c1` [Example 18, N-(2-Amino-2-methyl-propyl)-N′-[5-(3-ethoxy-benzenesulfonyl)-thiazol-2-yl]-2-trifluoromethyl-pyrimidine-4,6-diamine], the IC50 is 0.001 to 1 µM.

As for `CCOc1cccc(S(=O)(=O)c2cnc(Nc3cc(NCCN(C)C)nc(C(F)(F)F)n3)s2)c1` [Example 19, N-(2-Dimethylamino-ethyl)-N′-[5-(3-ethoxy-benzenesulfonyl)-thiazol-2-yl]-2-trifluoromethyl-pyrimidine-4,6-diamine], the IC50 is 0.001 to 1 µM.

For `CCOc1cccc(S(=O)(=O)c2cnc(Nc3cc(OCCN4CCCC4)nc(C)n3)s2)c1` [Example 20, [5-(3-Ethoxy-benzenesulfonyl)-thiazol-2-yl]-[2-methyl-6-(2-pyrrolidin-1-yl-ethoxy)-pyrimidin-4-yl]-amine], the IC50 was 0.001 to 1 µM.

For `CCOc1cccc(S(=O)(=O)c2cnc(Nc3cc(OC[C@H]4CCCN4)nc(C)n3)s2)c1` [Example 21, N-[5-(3-ethoxy-benzenesulfonyl)-thiazol-2-yl]-[2-methyl-((6R)-1-pyrrolidin-2-yl-methoxy)pyrimidin-4-yl]-amine], the IC50 was 0.001 to 1 µM.

Consider `CCOc1cccc(S(=O)(=O)c2cnc(Nc3cc(OC4CCNC4)nc(C)n3)s2)c1` (stereo not drawn) [Example 22, N-[5-(3-ethoxy-benzenesulfonyl)-thiazol-2-yl]-[2-methyl-6-(pyrrolidin-3-yloxy)pyrimidin-4-yl]-amine], for which the IC50 lay in the range of 0.001 to 1 µM.

`CCOc1cccc(S(=O)(=O)c2cnc(Nc3cc(OCCOC)nc(C)n3)s2)c1` [Example 23, N-[5-(3-ethoxy-benzenesulfonyl)-thiazol-2-yl]-[6-(2-methoxy-ethoxy)-2-methyl-pyrimidin-4-yl]-amine]: the IC50 fell in the range of 0.001 to 1 µM.

Regarding `CCOc1cccc(S(=O)(=O)c2cnc(Nc3nc(C)nc(OCCN4CCCC4)c3F)s2)c1` [Example 24, [5-(3-Ethoxy-benzenesulfonyl)-thiazol-2-yl]-[5-fluoro-2-methyl-6-(2-pyrrolidin-1-yl-ethoxy)-pyrimidin-4-yl]-amine], the IC50 is 0.001 to 1 µM.

On to `CCOc1cccc(S(=O)(=O)c2cnc(Nc3nc(C)nc(OCCOC)c3F)s2)c1` [Example 25, N-[5-(3-ethoxy-benzenesulfonyl)-thiazol-2-yl]-[5-fluoro-6-(2-methoxy-ethoxy)-2-methyl-pyrimidin-4-yl]-amine], for which the IC50 fell in the range of 0.001 to 1 µM.

With `CCOc1cccc(S(=O)(=O)c2cnc(Nc3nc(C)nc(OCCC4CCCC4)c3F)s2)c1` [Example 26, [6-(2-Cyclopentyl-ethoxy)-5-fluoro-2-methyl-pyrimidn-4-yl]-[5-(3-ethoxy-benzenesulfonyl)-thiazol-2-yl]-amine], the IC50 lay in the range of 10 to 1000 µM.

Turning to `CCOc1cccc(S(=O)(=O)c2cnc(Nc3nc(C)nc(OCCN(C)C)c3F)s2)c1` [Example 27, [6-(2-Dimethylamino-ethoxy)-5-fluoro-2-methyl-pyrimidn-4-yl]-[5-(3-ethoxy-benzenesulfonyl)-thiazol-2-yl]-amine], the IC50 is 0.001 to 1 µM.
